# Reference: patent publication US20150005347A1, “NITROGEN-CONTAINING HETEROCYCLIC DERIVATIVE HAVING 2-IMINO GROUP AND PEST CONTROL AGENT INCLUDING THE SAME” (MEIJI SEIKA PHARMA CO., LTD., priority 2012, published 2015)
# Columns and labels:
# Type in all cases: in vivo
# Musca domestica = assay: Pest control test of Musca domestica adults, sucrose pledget; settings: 50 ppm in 40% sucrose liquid; four days after release
# Experimental: Test Example 21 Pest Control Test of Musca domestica
# A drug solution of the compound of the present invention, which had been adjusted to be 50 ppm with a 40% sucrose liquid, was adsorbed on a pledget, and the pledget was put into a vial. Two adults reared indoors were released thereto. Thereafter, the adults were left to stand indoors at room temperature of 25° C. […] When two adults were all agonized in death, it was judged to be effective.
# Plutella xylostella = Plutella xylostella control test, cabbage leaf disk foliar spray; settings: Plutella xylostella, 72 h; foliar treatment at 100 ppm; second instar larvae; three days after release; read-out: mortality of larvae
# Experimental: Test Example 1 Plutella xylostella Control Test
# (§1) A leaf disk having a diameter of 5.0 cm was cut out from a cabbage in pot culture, and a drug solution of the compound of the present invention at a predetermined concentration, which had been prepared so as to be a 50% acetone water (0.05% Tween20 available), was sprayed to the leaf disk. After an air drying process, second instar larvae were released thereto. Thereafter, the larvae were left to stand in a thermostatic chamber (16 hours of light period-8 hours of dark period) at 25° C. […] Test in duplicate.
# mortality larvae(%)={number of dead larvae/(number of survived larvae+number of dead larvae)}×100
# Aphis gossypii = assay: Pest control test of Aphis gossypii, cucumber leaf disk foliar spray; settings: Aphis gossypii, 72 h, first instar larvae, three days after release; for mortality at 20 ppm: foliar treatment at 20 ppm; for mortality at 20 ppm / mortality at 100 ppm: read-out: mortality of larvae; for mortality at 100 ppm: foliar treatment at 100 ppm
# Experimental: Test Example 3 Pest Control Test of Aphis gossypii
# as §1, with “2.0” for “5.0”, “cucumber” for “cabbage”, “first” for “second”
# (§2) Mortality of larvae(%)={number of dead larvae/(number of survived larvae+number of dead larvae)}×100
# [1] = system: imidacloprid susceptible populations of Nilaparvata lugens; assay: Soil irrigation test, imidacloprid susceptible populations of Nilaparvata lugens
# Experimental: (§3) A rice seedling in pot culture was subjected to soil irrigation treatment with a drug solution of the compound of the present invention at a predetermined concentration, which had been prepared so as to be a 10% acetone water. […] Thereafter, the larvae were left to stand in a thermostatic chamber (16 hours of light period-8 hours of dark period) at 25° C. […] The test was performed in duplicate.
# as §2
# Further, for comparison, the test against some population of Nilaparvata lugens which is highly susceptible to imidacloprid was performed by the same method as described above, and the results thereof are shown in Table 43.
# (§4) Further, for the origin of test pests, bugs collected outdoors within the Kumamoto prefecture in 2007 as the drug resistant Nilaparvata lugens, and bugs collected within the Kagoshima prefecture and then successively reared indoors for a long time as the imidacloprid susceptible populations of Nilaparvata lugens were used.
# [2] = system: Nilaparvata lugens exhibiting drug resistance to imidacloprid; settings: soil irrigation
# Experimental: Test Example 18 Pest Control Test of Drug-Resistant Nilaparvata lugens
# as §3, §2, §4
# [3] = system: Frankliniella occidentalis; assay: Pest control test of Frankliniella occidentalis, kidney bean leaf disk foliar spray; settings: Frankliniella occidentalis, 72 h; foliar treatment at 100 ppm; first instar larvae; three days after release; read-out: mortality of larvae
# Text: Test Example 7 Pest Control Test of Frankliniella occidentalis
# as §1, with “2.8” for “5.0”, “kidney bean” for “cabbage”, “first” for “second”
# as §2
# [4] = system: Trigonotylus caelestialium; assay: Pest control test of Trigonotylus caelestialium, wheat seedling dipping; settings: Trigonotylus caelestialium, 72 h; dipping treatment of the drug solution at 10 ppm; three days after treatment; read-out: mortality of larvae
# Text: Test Example 8 Pest Control Test of Trigonotylus caelestialium
# Wheat seedling leaves and stems four days after the dissemination of seedlings were dipped for 30 seconds in a drug solution of the compound of the present invention at a predetermined concentration, which had been prepared so as to be a 50% acetone water (0.05% Tween20 available). After an air drying process, the wheat seedling leaves and stems were placed into a glass tube, and two second instar larvae of Trigonotylus caelestialium were released to the same glass tube. After the larvae were released, the tube was lidded to leave the larvae to stand in a thermostatic chamber at 25° C. In order to supply water to the wheat during the test, water was given to the wheat from the bottom of the glass tube.
# as §2
Compound,activity against adults (effective when two adults were all agonized in death) (Musca domestica),other results
FC(F)(F)C(=NC1CC1)N=c1ccccn1Cc1ccc(Cl)nc1 [Compound 1-50],all the adults are agonized in death,
C#CCC(=O)ON=C(N=c1ccccn1Cc1ccc(Cl)nc1)C(F)(F)F [Compound 1-518],all the adults are agonized in death,
CCN=C(N=c1ccccn1Cc1ccc(Cl)nc1)C(F)(F)F [Compound 1-43],all the adults are agonized in death,
FC(F)(F)C(=NCc1ccccc1)N=c1ccccn1Cc1ccc(Cl)nc1 [Compound 1-72],all the adults are agonized in death,
"C=CCON=C(/N=c1\ccccn1Cc1ccc(Cl)nc1)C(F)(F)F [Compound 1-507, N′-(aryloxy)-N-[1-((6-chloropyridin-3-yl)methyl)pyridin-2(1H)-ylidene]-2,2,2-trifluoroacetimidamide]",,mortality at 100 ppm (Plutella xylostella): ≥ 80%; mortality at 20 ppm (Aphis gossypii): ≥ 80%; mortality at 100 ppm (Aphis gossypii): ≥ 80%
O=C(N=c1ccccn1Cc1cnc(Cl)c(F)c1)C(F)(F)Cl [Compound 5-4],all the adults are agonized in death,
FC(F)(F)C(=NCc1cccnc1)N=c1ccccn1Cc1ccc(Cl)nc1 [Compound 1-119],all the adults are agonized in death,
O=C(N=c1ccccn1Cc1ccc(Br)nc1)C(F)F [Compound 4-3],all the adults are agonized in death,
O=[N+]([O-])NC1=NCCN1Cc1ccc(Cl)nc1 [Imidacloprid],,"Insecticidal effects against Nilaparvata lugens (mortality of larvae %), Susceptible populations three days after the treatment ([1]; Rate 0.01 mg/pot): 73%; Insecticidal effects against Nilaparvata lugens (mortality of larvae %), Susceptible populations three days after the treatment ([1]; Rate 0.05 mg/pot): 90%"
O=C(N=c1ccccn1Cc1ccc(Br)nc1)C(F)(F)C(F)(F)F [Compound 4-5],all the adults are agonized in death,
O=C(N=c1ccccn1Cc1ccc(Br)nc1)C(F)(F)Cl [Compound 4-4],all the adults are agonized in death,
"O=C(/N=c1\ccccn1Cc1ccc(Cl)nc1)OCC(F)(F)F [Compound 1-17, 2,2,2-trifluoroethyl-[1-((6-chloropyridin-3-yl)methyl)pyridin-(2H)-ylidene]carbamate]",,mortality at 100 ppm (Aphis gossypii): ≥ 80%; mortality at 500 ppm (Aphis gossypii; foliar treatment at 500 ppm): ≥ 80%
O=C(N=c1ccccn1Cc1cnc(Cl)c(F)c1)C(F)(F)C(F)(F)F [Compound 5-5],all the adults are agonized in death,
CCCN=C(N=c1ccccn1Cc1ccc(Cl)nc1)C(F)(F)F [Compound 1-44],all the adults are agonized in death,
CSCCN=C(N=c1ccccn1Cc1ccc(Cl)nc1)C(F)(F)F [Compound 1-150],all the adults are agonized in death,
O=C(N=c1cccnn1Cc1ccc(Cl)nc1)C(F)(F)F [Compound 223-2],all the adults are agonized in death,

Compound,activity against adults (effective when two adults were all agonized in death) (Musca domestica),other results
FC(F)(F)C(=NCc1ccccn1)N=c1ccccn1Cc1ccc(Cl)nc1 [Compound 1-118],all the adults are agonized in death,
O=C(N=c1ccccn1Cc1cnc(Cl)nc1)C(F)(F)Cl [Compound 6-4],all the adults are agonized in death,
FC(F)(Cl)C(=S)N=c1ccccn1Cc1ccc(Cl)nc1 [Compound 1-22],all the adults are agonized in death,"Insecticidal effects against Nilaparvata lugens (mortality of larvae %), Drug resistant populations three days after the treatment ([2]; Rate 0.05 mg/pot, drug resistant populations): 60%; insecticidal effects against drug resistant Nilaparvata lugens ([2]; imidacloprid-resistant): high insecticidal effects; mortality of larvae against drug resistant populations compared with susceptible populations of Nilaparvata lugens ([2]; imidacloprid-resistant vs susceptible): equivalent mortality of larvae; Insecticidal effects against Nilaparvata lugens (mortality of larvae %), Susceptible populations three days after the treatment ([1]; Rate 0.05 mg/pot): 75%"
O=C(N=c1ccccn1Cc1ccc(F)nc1)C(F)(F)C(F)(F)F [Compound 3-5],all the adults are agonized in death,
FC(F)(F)C(=S)N=c1ccccn1Cc1cnc(Cl)s1 [Compound 2-20],all the adults are agonized in death,
FC(F)(F)C(=NCCOc1ccccc1)N=c1ccccn1Cc1ccc(Cl)nc1 [Compound 1-114],all the adults are agonized in death,
CON=C(N=c1ccccn1Cc1ccc(Cl)nc1)C(F)(F)F [Compound 1-500],all the adults are agonized in death,
O=C(N=c1ccccn1Cc1cnc(Cl)nc1)C(F)(F)C(F)(F)F [Compound 6-5],all the adults are agonized in death,
"CCCNC(=O)O/N=C(/N=c1\ccccn1Cc1ccc(Cl)nc1)C(F)(F)F [Compound 1-534, N-[1-((6-chloropyridin-3-yl)methyl)pyridin-2(1H)-ylidene]-2,2,2-trifluoro-N′-((propylcarbamoyl)oxy)acetimidamide]",,mortality at 100 ppm (Plutella xylostella): ≥ 80%
Cc1ccc(S(=O)(=O)ON=C(N=c2ccccn2Cc2ccc(Cl)nc2)C(F)(F)F)cc1 [Compound 1-531],all the adults are agonized in death,
O=C(N=c1ccccn1Cc1cnc(Cl)nc1)C(F)F [Compound 6-3],all the adults are agonized in death,
"O=C(/N=c1\ccccn1Cc1ccc(F)nc1)C(F)F [Compound 3-3, 2,2-difluoro-N-[1-((6-fluoropyridin-3-yl)methyl)pyridin-2(1H)-ylidene]acetamide]",all the adults are agonized in death,mortality at 100 ppm (Plutella xylostella): ≥ 80%; mortality at 20 ppm (Aphis gossypii): ≥ 80%; mortality at 100 ppm (Aphis gossypii): ≥ 80%; mortality at 100 ppm [3]: ≥ 80%; mortality at 10 ppm [4]: ≥ 80%
"O=C(/N=c1\ncccn1Cc1ccc(Cl)nc1)C(F)(F)F [Compound 190-2, N-[1-((6-chloropyridin-3-yl)methyl)pyrimidin-2(1H)-ylidene]-2,2,2-trifluoroacetamide]",,mortality at 20 ppm (Aphis gossypii): ≥ 80%; mortality at 100 ppm (Aphis gossypii): ≥ 80%
O=C(N=c1ccccn1Cc1ccc(F)nc1)C(F)(F)Cl [Compound 3-4],all the adults are agonized in death,
C#CCN=C(N=c1ccccn1Cc1ccc(Cl)nc1)C(F)(F)F [Compound 1-56],all the adults are agonized in death,
